From US12239654B2, “Compounds and methods for treating neurological and cardiovascular conditions” (Astrocyte Pharmaceuticals, Inc., priority 2016, dated 2025)
Like-named read-outs stand apart in the source and are kept apart here.

Columns and labels:
[1] = Pharmacokinetics of MRS4322 following intraperitoneal administration to mice (plasma and brain concentrations, LC-MS/MS); format: in vivo; conditions: female, mouse, plasma; for Tmax: MRS4322 0.16 mg/kg ip; for half-life: ip, MRS4322 […] ip
Method: Animals: Female C576BL/6J mice weighing approximately 0.02 kg were used for this study, supplied by the University of Texas Health Sciences Center (San Antonio, TX). All studies were conducted under approved University of Texas Health Sciences Center IACUC protocols.
Drug Administration: MRS4322 was solubilized in DMSO and then diluted in saline to prepare dosing solution. Final dosing solution concentration of MRS4322 was 100 μM. A 100 μL volume of dosing solution was administered intraperitoneally to each mouse per 20 gram body weight; MRS4322 was administered intraperitoneally at 0.16 mg/kg or 0.5 μmol/kg. Three mice were administered MRS4322 for each sampling timepoint.
Tissue Sampling: Blood and brain samples were obtained at 0, 0.083, 0.25, 0.5, 1, 2 and 8 hours post-dose. At each timepoint, mice (3/timepoint) were euthanized in a […] chamber. Whole blood was obtained by cardiac puncture into Microtainer tubes containing heparin and immediately centrifuged for preparation of plasma; plasma was stored at −80° C. At each timepoint, whole brain samples were obtained by decapitation, rinsed in ice-cold phosphate-buffered saline and weighed. Brain samples were then immediately flash-frozen in liquid nitrogen and stored at −80° C.
The following table outlines the LC and MS/MS conditions employed:
The calibration range for the MRS4322 plasma concentration standard curve was 2.42-242 ng/mL. The calibration range for MRS4322 brain concentrations was 2.41-233 ng/mL.
For bioanalysis of brain concentrations of MRS4322, brain samples were homogenized in ice-cold phosphate-buffered saline in a 4× dilution. Aliquots of the resulting diluted brain homogenate were treated with acetonitrile and analyzed by LC-MS/MS. Because of the 4× homogenate dilution, the calibration range of the MRS4322 brain standard curve was translated to 9.64-932 ng/gm. In several samples, MRS4322 was detectable but fell below the brain LLOQ of 9.64 ng/gm but were above background; in these cases the final reported brain concentration was extrapolated based on MS peak heights.

[2] = Brain binding determination by brain homogenate ultrafiltration, neonatal pig; format: in vitro ADME; conditions: female, pH 7.4, 37° C., read-out: % Bound Mean (converted)
Method: Animals and Tissue Preparation. Plasma and brain samples from female neonatal pigs were obtained from the University of Pennsylvania and stored at −80° C. until use.
Brains were weighed and homogenized with 1:9 phosphate-buffered saline, pH 7.4 using an Omni tissue homogenizer.
Pooled homogenized brains were pre-warmed for 60 minutes in a humidified, 5% CO2 incubator maintained at 37° C. […] Spiked pooled brain homogenates were placed on a Nutator mixer in a humidified, 5% CO2 incubator at 37° C. for 60 minutes. After 60 minutes, three 800 ul aliquots of each sample were added to Centrifree centrifugal filters. The filters were subjected to centrifugation at 2900 rpm for 10 minutes at 37 C. Aliquots of residual brain homogenate and ultrafiltrate were collected for bioanalysis.
(§1) For each tissue matrix, standard curves were created and LLOQ/ULOQ concentrations determined.

[3] = Plasma binding determination by plasma ultrafiltration, neonatal pig; format: in vitro ADME; conditions: female, 37° C., read-out: % Bound Mean (converted)
Method: Plasma ultrafiltrate blank samples were prepared by thawing frozen plasma and then pre-warming plasma in a humidified 5% CO2 chamber at 37 C for 60 minutes. Aliquots of 800 ul were transferred to Centrifree Centrifugal Filters (Ultracel regenerated cellulose (NMWL 30,000 amu) Lot R5JA31736) and centrifuged at 2900 RPM at 37 C for 10 minutes; plasma water filtrates were collected and used in preparation of standards, blanks and QC standards.
Plasma Binding Determination. […] Plasma samples were pre-warmed for 60 minutes in a humidified, 5% CO2 incubator maintained at 37° C. […] Spiked plasma samples were incubated on a rotary mixer in a humidified 5% CO2 chamber at 37° C. for a minimum of 60 minutes. After 60 minutes, three 800 ul aliquots of each sample were added to Centrifree centrifugal filters. The filters were subjected to centrifugation at 2900 rpm for 10 minutes at 37° C. Three 100 ul aliquots of residual plasma were collected along with ultrafiltrate for bioanalysis.
as §1

[4] = LC-MS/MS metabolite scouting of MRS2365 in plasma and whole blood; format: in vitro ADME; conditions: EDTA-treated mouse and human whole blood
Method: Plasma Stability Determination: MRS2365, enalapril and procaine were solubilized in phosphate-buffered saline, pH 7.4. […] Stability incubations were initiated with the addition of MRS2365 (1 μM final concentration). Initial assessments of stability in EDTA-generated plasma utilized incubation timepoints of 0, 10, 30, 60, 120 and 240 minutes (FIGS. 3 and 4). Subsequent studies comparing EDTA- and heparin-generated plasma utilized incubation timepoints of 0, 1, 2.5, 5, 7.5, 10 and 30 minutes (FIG. 7). Additional plasma stability incubations comparing EDTA- and heparin-generated plasma were performed using timepoints of 0, 5, 10, 20, 30, 45, 60 and 90 seconds (FIG. 8). […]
Plasma and blood samples were also qualitatively analyzed for MRS2365 metabolites utilizing a LC-MS/MS-based “metabolite scouting” protocol. […] Blood and plasma samples were analyzed by both positive- and negative-ion LC/MS-MS for parent compound and metabolites as it was anticipated that the phosphorylated compounds would preferentially generate negative ions while the riboside MRS4322 would preferentially generate positive ions. In positive-ion mode, extracted ion chromatograms monitored masses in the range of 323.7-324.7 and 403.7-404.7 to scout for MRS4322 and MRS2347, respectively. Any ion peaks in these ranges were further analyzed to generate product ion spectra for these ion chromatogram peaks. […]

[5] = Stability of MRS2365 incubated in phosphate-buffered saline; format: physicochemical
[6] = In vitro stability of MRS2365 in mouse whole blood; format: in vitro ADME; conditions: male, CD-1, EDTA-treated mouse whole blood
Method: Whole blood was obtained from male CD-1 mice and human volunteers at Seventh Wave Laboratories (Maryland Heights, MO). Plasma and blood samples were prepared using either EDTA (1 mM) or lithium heparin as anticoagulants.
Blood Stability Determination: MRS2365, enalapril and procaine were solubilized in phosphate-buffered saline, pH 7.4. […] Stability incubations were initiated with the addition of MRS2365 (1 μM final concentration) (FIGS. 5 and 6). Blood sample aliquots were obtained at 0, 1, 2.5, 7.5, 10 and 30 minutes and placed in microtainer tubes. For metabolite scouting analyses, MRS2365 was incubated in heparinized human whole blood at a concentration of 100 μM for 10 or 30 minutes (FIG. 10). In all studies, plasma was immediately prepared by centrifugation at 4° C., placed in microtainer tubes, frozen on dry ice and stored at −80° C. until analysis.
The following table outlines the LC and MS/MS conditions employed (Table 11).
The calibration range for MRS2365 plasma and blood concentration standard curves was 5-5000 ng/mL. Quality control samples were utilized at concentrations of 32, 160, 800 and 4000 ng/mL.

CSc1nc(N)c2ncn([C@H]3[C@H](O)[C@H](O)[C@]4(CO)C[C@H]34)c2n1 [MRS4322] showed a Tmax ([1]; C57BL/6J, mean, read-out: Tmax Mean) of 4.98 min, a half-life ([1]; C57BL/6J, mean, read-out: Half-life Mean (converted)) of 18.6 min and a Tmax ([1]; C576BL/6J, animals A-C, read-out: Tmax) of 4.98 min. For the same molecule, the half-life ([1]; C576BL/6J, animals A-C, read-out: Half-life (converted)) was 18.4 min, the fraction unbound at 60 min, 1 uM [2] was 0.253 and the fraction unbound at 60 min, 1 uM [3] was 0.784.
With CSc1nc(N)c2ncn([C@H]3[C@H](O)[C@H](O)[C@]4(COP(=O)(O)OP(=O)(O)O)C[C@H]34)c2n1 [MRS2365] the metabolites detected [4] was “No metabolites were detected”, the “stability when incubated in phosphate-buffered saline” value [5] was “completely stable” and the half-life at 1 μM [6] was 47 min.
